Assay results published in ChEMBL document CHEMBL3621135 (ACS Med Chem Lett, 2015).
Active and inactive are the calls of the source. The calls are words filed in the database; no cut-off is given here.

Columns and labels:
[1] = Half life in dog at 0.2 mg/kg, iv and 0.2 mg/kg, po; format: ADME, organism-based, Canis lupus familiaris; conditions: in vivo
Rattus norvegicus [2] = test: Reduction in red blood cell mass in rat at 15 mg/kg/day for 2 weeks; format: functional, organism-based
[3] = target: Tyrosine-protein kinase JAK1 (Homo sapiens, UniProt P23458); test: Inhibition of recombinant JAK1 (unknown origin) using 5-FAM-KKKKEEIYFFFG-OH substrate and ATP incubated for 180 mins by […] method
[4] = Oral bioavailability in dog at 0.2 mg/kg; format: ADME, organism-based, Canis lupus familiaris; conditions: in vivo
Mus musculus [5] = test: Inhibition of JAK2 V617F mutant in mouse pharamcodynamic model expressing JAK2 V617F mutant assessed as reduction in STAT5 phosphorylation at 2 mg/kg, po measured up to 7 hrs; format: functional, organism-based
[6] = Oral bioavailability in cynomolgus monkey at 1 mg/kg; format: ADME, organism-based, Macaca fascicularis; conditions: in vivo
[7] = Antiproliferative activity against mouse CTLL-2 cells incubated for 72 hrs by [3H] thymidine incorporation assay; format: functional, cell-based
Mus musculus [8] = test: AUC (0 to 8 hrs) in mouse pharamcodynamic model at 10 mg/kg, po; format: ADME, organism-based; design: dose 10 mg/kg, time < 8 hr, route oral; conditions: in vivo
JAK3/JAK1 = JAK3/JAK1 (Homo sapiens, UniProt P23458+P52333); test: Inhibition of JAK1/JAK3 in T cells (unknown origin) assessed as reduction in IL2-mediated cell proliferation; format: cell-based
[9] = AUC (0 to 72 hrs) in rat; format: ADME, organism-based; design: time < 72 hr; conditions: in vivo
[10] = Half in rat liver microsomes; format: ADME
Cytochrome P450 1A2 = target: T1, Cytochrome P450 1A2 (Homo sapiens, UniProt P05177); test: Inhibition of CYP1A2 in human liver microsomes; format: ADME
T1 sequence (P05177 whole entry): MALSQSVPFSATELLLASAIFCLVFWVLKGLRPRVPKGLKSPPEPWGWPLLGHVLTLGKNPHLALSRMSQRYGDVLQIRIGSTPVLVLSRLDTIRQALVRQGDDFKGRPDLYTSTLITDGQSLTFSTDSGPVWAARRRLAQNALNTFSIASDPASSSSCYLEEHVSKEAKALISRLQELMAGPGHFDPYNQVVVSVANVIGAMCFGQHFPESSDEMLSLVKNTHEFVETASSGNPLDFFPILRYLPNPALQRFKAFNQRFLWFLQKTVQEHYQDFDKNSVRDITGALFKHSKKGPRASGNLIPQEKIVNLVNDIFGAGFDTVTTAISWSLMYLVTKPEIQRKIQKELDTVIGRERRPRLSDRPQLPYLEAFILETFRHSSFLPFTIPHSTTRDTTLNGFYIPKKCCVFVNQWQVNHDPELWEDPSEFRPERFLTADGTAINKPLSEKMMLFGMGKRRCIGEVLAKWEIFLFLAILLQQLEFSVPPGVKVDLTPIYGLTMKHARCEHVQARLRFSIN

BaF3 = test: Antiproliferative activity against mouse BAF3 cells expressing JAK2 V617F mutant incubated for 72 hrs by [3H] thymidine incorporation assay; format: functional, cell-based
[11] = target: Tyrosine-protein kinase JAK2 (Homo sapiens, UniProt O60674); test: Inhibition of recombinant JAK2 (unknown origin) using 5-FAM-KKKKEEIYFFFG-OH substrate and ATP incubated for 180 mins by […] method
Mus musculus [12] = test: Inhibition of JAK2 in mouse pharamcodynamic model assessed as reduction in STAT5 phosphorylation at 30 mg/kg, po after 18 hrs; format: functional, organism-based
MIA PaCa-2 = test: Antiproliferative activity against human MIAPaCa2 cells incubated for 72 hrs by [3H] thymidine incorporation assay; format: functional, cell-based
[13] = target: T2, Tyrosine-protein kinase JAK3 (Homo sapiens, UniProt P52333); test: Inhibition of recombinant JAK3 (unknown origin) using 5-FAM-KKKKEEIYFFFG-OH substrate and ATP incubated for 180 mins by […] method
T2 sequence (P52333 whole entry): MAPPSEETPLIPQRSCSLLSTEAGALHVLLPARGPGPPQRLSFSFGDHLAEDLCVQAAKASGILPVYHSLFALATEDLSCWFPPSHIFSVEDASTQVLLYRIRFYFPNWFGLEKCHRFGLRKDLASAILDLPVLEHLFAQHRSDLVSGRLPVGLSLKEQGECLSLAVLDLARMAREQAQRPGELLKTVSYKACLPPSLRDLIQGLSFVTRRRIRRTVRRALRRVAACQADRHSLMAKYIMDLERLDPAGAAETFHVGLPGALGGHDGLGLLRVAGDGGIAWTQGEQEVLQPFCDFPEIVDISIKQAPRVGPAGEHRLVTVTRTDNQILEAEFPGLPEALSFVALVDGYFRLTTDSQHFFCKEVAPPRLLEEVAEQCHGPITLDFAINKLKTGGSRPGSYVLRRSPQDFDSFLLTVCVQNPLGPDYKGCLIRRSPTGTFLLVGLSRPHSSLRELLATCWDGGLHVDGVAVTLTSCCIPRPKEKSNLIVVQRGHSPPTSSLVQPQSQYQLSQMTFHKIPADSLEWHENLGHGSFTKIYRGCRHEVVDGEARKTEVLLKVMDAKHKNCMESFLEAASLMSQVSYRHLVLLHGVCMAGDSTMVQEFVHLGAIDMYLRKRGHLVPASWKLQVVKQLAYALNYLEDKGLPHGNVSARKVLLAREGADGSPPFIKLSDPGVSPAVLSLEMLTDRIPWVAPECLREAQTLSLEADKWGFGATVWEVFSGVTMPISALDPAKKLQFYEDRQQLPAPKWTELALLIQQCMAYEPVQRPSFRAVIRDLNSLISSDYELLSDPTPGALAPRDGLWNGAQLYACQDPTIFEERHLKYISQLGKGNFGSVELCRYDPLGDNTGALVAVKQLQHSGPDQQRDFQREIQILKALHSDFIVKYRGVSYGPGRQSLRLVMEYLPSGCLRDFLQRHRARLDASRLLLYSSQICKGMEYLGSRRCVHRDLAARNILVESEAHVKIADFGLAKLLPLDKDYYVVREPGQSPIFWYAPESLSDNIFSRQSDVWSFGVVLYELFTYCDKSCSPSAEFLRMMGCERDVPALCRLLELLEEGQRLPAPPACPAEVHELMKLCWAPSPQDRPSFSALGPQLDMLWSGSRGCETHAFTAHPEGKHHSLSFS

Rattus norvegicus [14] = test: Toxicity in rat assessed as drug tolerability up to 100 mg/kg; format: organism-based; conditions: in vivo
[15] = Inhibition of calcium channel (unknown origin) by patch clamp assay; design: species or system Homo sapiens
[16] = Clearance in dog at 0.2 mg/kg, iv and 0.2 mg/kg, po; format: ADME, organism-based, Canis lupus familiaris; conditions: in vivo
[17] = Clearance in cynomolgus monkey at 1 mg/kg, iv and 1 mg/kg, po; format: ADME, organism-based, Macaca fascicularis; conditions: in vivo
[18] = Volume of distribution at steady state in rat at 1 mg/kg, iv and 1 mg/kg, po; format: ADME, organism-based; conditions: in vivo, read-out: Vdss
[19] = Volume of distribution at steady state in dog at 0.2 mg/kg, iv and 0.2 mg/kg, po; format: ADME, organism-based, Canis lupus familiaris; conditions: in vivo, read-out: Vdss
Phosphodiesterase 4 = Phosphodiesterase 4 (Homo sapiens, UniProt P27815+Q08499+Q07343+Q08493); test: Inhibition of PDE4 (unknown origin); format: protein assay
Salmonella typhimurium = test: Mutagenicity in Salmonella typhimurium by Ames test; format: toxicity, organism-based; conditions: salmonella enterica subsp. enterica serovar typhimurium

Chain of Tyrosine-protein kinase JAK2 (O60674 whole entry): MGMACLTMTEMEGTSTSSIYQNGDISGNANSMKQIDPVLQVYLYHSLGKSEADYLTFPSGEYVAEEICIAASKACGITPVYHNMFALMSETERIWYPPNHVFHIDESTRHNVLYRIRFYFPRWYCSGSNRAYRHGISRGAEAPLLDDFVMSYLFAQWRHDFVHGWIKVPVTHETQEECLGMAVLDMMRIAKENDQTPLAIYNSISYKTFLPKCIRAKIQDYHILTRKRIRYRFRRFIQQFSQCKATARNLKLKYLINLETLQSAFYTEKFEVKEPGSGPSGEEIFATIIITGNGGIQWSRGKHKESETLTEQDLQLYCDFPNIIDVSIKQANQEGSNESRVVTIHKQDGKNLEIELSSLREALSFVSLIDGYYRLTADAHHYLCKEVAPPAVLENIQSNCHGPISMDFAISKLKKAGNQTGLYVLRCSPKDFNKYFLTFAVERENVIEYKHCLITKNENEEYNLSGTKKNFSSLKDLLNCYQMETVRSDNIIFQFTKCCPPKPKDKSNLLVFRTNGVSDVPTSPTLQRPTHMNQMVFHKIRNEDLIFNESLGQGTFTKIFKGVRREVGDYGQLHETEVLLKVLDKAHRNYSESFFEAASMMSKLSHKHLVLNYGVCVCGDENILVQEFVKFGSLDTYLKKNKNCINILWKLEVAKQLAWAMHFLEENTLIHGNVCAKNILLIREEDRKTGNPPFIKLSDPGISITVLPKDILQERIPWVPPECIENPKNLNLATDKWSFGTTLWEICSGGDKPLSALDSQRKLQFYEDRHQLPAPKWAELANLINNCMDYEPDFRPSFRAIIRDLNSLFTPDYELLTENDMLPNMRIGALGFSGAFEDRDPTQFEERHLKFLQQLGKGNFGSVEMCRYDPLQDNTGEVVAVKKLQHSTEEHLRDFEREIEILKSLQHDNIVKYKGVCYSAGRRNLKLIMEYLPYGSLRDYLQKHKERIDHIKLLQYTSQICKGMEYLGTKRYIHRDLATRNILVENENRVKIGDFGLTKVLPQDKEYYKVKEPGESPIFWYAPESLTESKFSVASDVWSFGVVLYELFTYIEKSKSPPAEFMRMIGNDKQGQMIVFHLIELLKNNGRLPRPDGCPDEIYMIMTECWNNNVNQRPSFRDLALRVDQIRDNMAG
Chain of Tyrosine-protein kinase JAK1 (P23458 whole entry): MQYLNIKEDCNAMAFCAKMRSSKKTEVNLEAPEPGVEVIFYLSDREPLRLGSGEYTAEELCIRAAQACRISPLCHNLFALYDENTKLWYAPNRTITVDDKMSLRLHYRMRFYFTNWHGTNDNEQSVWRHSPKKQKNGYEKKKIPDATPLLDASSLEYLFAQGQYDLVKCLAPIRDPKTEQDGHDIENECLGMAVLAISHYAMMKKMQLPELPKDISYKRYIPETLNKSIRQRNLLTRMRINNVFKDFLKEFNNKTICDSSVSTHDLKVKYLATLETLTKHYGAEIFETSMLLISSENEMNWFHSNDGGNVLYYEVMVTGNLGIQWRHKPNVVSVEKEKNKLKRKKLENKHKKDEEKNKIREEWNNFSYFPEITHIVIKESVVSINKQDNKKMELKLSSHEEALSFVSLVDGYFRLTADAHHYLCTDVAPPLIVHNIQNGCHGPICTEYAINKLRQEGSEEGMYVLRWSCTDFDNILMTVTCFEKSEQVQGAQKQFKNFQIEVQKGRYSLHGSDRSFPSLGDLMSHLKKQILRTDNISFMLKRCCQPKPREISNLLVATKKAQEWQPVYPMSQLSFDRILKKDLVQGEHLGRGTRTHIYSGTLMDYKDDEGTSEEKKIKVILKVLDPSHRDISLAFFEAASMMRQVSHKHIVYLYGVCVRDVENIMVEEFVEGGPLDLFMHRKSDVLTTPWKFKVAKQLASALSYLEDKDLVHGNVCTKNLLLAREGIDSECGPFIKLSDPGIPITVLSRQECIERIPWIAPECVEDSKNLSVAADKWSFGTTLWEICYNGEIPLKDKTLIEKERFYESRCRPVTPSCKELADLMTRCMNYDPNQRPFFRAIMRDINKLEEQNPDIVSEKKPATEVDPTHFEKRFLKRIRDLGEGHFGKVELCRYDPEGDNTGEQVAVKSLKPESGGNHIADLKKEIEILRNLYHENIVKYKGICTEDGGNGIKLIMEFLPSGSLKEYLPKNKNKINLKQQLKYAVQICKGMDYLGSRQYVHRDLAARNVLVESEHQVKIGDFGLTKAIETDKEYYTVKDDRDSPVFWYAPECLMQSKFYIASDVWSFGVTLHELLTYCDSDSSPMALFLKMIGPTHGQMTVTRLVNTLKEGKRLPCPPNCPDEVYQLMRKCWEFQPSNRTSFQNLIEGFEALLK
Chain of JAK3/JAK1 (P23458 whole entry, one chain of several): as the sequence (P23458 whole entry) above

CCn1c(C(=O)N(C2CC2)C2CC2)cc2c3c(ncn3C)c(Nc3cc(C)n(C)n3)nc21 [BMS-911543]
half-life [1]: 2.2 h | Activity (Rattus norvegicus [2]): Active | IC50 [3]: 0.075 µM | bioavailability [4]: 82% | inhibition (Mus musculus [5]): Active | bioavailability [6]: 53% | IC50 [7]: 2.9 µM | AUC (Mus musculus [8]): 41 µM·h | IC50 (JAK3/JAK1): 0.99 µM | AUC(0-t) at 72 h [9]: 11300 µM·h | half-life [10]: 1.15 h | IC50 (Cytochrome P450 1A2): 1 µM | IC50 (BaF3): 0.07 µM | IC50 [11]: 0.0011 µM | inhibition (Mus musculus [12]): Active | Activity (MIA PaCa-2): inactive | IC50 [13]: 0.36 µM | Activity (Rattus norvegicus [14]): Non-toxic | IC50 [15]: > 80 µM | clearance [16]: 6.5 mL/min/kg | clearance [17]: 5.3 mL/min/kg | Vd [18]: 0.3 L/kg | Vd [19]: 1.6 L/kg | IC50 (Phosphodiesterase 4): 5.6 µM | Activity (Salmonella typhimurium): Non-toxic
